The target in assay [1] is T1, rat N type calcium channel (Rattus norvegicus, UniProt Q02294).
T1 construct: purchased Eurofins Inc
Briefly: Eurofins selectivity panel: N type calcium channel. Type of assay: binding.

Another assay deals with SMNΔ7 mice. The assay can be described thus: murine model of SMA (SMNΔ7 mice): survival, body weight, righting reflex. The assay is classed as in vivo, mouse. The settings on record: for SMA mice that survived / survivors at P65 / total mice: 20 mg/kg; for survivors at P65 / total mice: SMA mice. As to the method: A pair of heterozygous SMNΔ7 mice[28] (mSmn+/−, SMN2+/+, SMNΔ7+/+) were purchased from Jackson Laboratory (USA, stock number 005025). The homozygous SMNΔ7 mice (affected and referred to as “SMNΔ7 mice”; mSmn−/−, SMN2+/+, SMNΔ7+/+) was generated by cross-bleeding of heterozygous SMNΔ7 mice. All experiments were approved and monitored by the animal experiment committee of Gifu Pharmaceutical University and were performed after approval by the Bioethics and Biosafety Committee of Gifu Pharmaceutical University. All procedures relating to animal care and treatment confirmed to animal care guidelines issued by the National Institutes of Health.
SMNΔ7 mice were treated with 2, 6, and 20 mg/kg TEC-1 (succinate) once a day by intraperitoneal injection (TERUMO, Japan) from P2 to P23. TEC-1 was diluted in 0.9% NaCl (aqueous) for intraperitoneal injection. After P24, TEC-1 was administrated one a day orally using 0.4 × 0.7 mm feeding needle (Primetech Corporation, Japan). For oral administration, TEC-1 was diluted in distilled water (Otsuka Pharmaceutical Factory, Japan). Heterozygous mice received equal volumes of vehicle.
Survival and body weight were assessed daily. Righting reflex test[15] tests were performed […] at P6, 11 and 16. Righting time was defined as the time it took a pup to turn over to its front after being placed completely on its back (maximum 60 s). Dead individuals were set to 60 s.

Another assay concerns SMN protein. The assay can be described thus: SMN protein in iPSC-derived motor neurons (HTRF, western blot). Type of assay: cell-based, human. The settings on record: iPSC-derived motor neurons (GM24468), 3 days. The method, then:
GM03813 fibroblasts and GM24468-derived MNs were seeded at 1.5 × 10^4 and 4 × 10^4 cells/well in 96-well plates and were treated with TEC-1 or SMN-C3 for 72 h at the concentration of 0.01, 0.03, 0.1, 0.3, 1, or 3 µM. After 72 h exposure of compound, GM24468 derived MNs and GM03813 fibroblasts were washed once with D-PBS (-), lysed with RIPA buffer (Wako) containing cOmplete (Sigma-Aldrich) and PhosSTOP (Sigma-Aldrich). The lysates were spun at 15,000 rpm for 15 min at 4 °C, and the supernatants were collected. The protein concentration was quantified with BCA kit (Wako). The lysates, adjusted to have the same protein amount, were mixed with NuPAGE LDS sample buffer containing DTT and heated at 95 °C for 5 min. Except for HTT detection, each sample (2 µg total protein/lane) was loaded Perfect NT Gel 7.5–15% gel (DRC, Japan) and run at 150 V for 60–70 min with Tris/glycine/SDS running buffer (BIO-RAD, USA). […] After washing with TBS-T four times, chemiluminescence signals were detected by Immunostar Zeta (Wako) and LAS-4000 (GE healthcare). […]
SMN protein concentration of the cells were quantified using an SMN HTRF kit[15] […] The fluorescence emission was read at two different wavelengths (665 nm and 620 nm or 615 nm) using an Envision plate reader (PerkinElmer, USA) excited by 320 nm. The concentration of protein in each cell lysate were measured by BCA kit (BIO-RAD) and used for normalization.
In general terms: Time-resolved FRET reads energy transfer from a long-lived donor to a nearby acceptor.

These results are taken from PMC7562719, “Discovery of a CNS penetrant small molecule SMN2 splicing modulator with improved tolerability for spinal muscular atrophy” (Scientific Reports, 2020).

T1 sequence (Q02294 whole entry): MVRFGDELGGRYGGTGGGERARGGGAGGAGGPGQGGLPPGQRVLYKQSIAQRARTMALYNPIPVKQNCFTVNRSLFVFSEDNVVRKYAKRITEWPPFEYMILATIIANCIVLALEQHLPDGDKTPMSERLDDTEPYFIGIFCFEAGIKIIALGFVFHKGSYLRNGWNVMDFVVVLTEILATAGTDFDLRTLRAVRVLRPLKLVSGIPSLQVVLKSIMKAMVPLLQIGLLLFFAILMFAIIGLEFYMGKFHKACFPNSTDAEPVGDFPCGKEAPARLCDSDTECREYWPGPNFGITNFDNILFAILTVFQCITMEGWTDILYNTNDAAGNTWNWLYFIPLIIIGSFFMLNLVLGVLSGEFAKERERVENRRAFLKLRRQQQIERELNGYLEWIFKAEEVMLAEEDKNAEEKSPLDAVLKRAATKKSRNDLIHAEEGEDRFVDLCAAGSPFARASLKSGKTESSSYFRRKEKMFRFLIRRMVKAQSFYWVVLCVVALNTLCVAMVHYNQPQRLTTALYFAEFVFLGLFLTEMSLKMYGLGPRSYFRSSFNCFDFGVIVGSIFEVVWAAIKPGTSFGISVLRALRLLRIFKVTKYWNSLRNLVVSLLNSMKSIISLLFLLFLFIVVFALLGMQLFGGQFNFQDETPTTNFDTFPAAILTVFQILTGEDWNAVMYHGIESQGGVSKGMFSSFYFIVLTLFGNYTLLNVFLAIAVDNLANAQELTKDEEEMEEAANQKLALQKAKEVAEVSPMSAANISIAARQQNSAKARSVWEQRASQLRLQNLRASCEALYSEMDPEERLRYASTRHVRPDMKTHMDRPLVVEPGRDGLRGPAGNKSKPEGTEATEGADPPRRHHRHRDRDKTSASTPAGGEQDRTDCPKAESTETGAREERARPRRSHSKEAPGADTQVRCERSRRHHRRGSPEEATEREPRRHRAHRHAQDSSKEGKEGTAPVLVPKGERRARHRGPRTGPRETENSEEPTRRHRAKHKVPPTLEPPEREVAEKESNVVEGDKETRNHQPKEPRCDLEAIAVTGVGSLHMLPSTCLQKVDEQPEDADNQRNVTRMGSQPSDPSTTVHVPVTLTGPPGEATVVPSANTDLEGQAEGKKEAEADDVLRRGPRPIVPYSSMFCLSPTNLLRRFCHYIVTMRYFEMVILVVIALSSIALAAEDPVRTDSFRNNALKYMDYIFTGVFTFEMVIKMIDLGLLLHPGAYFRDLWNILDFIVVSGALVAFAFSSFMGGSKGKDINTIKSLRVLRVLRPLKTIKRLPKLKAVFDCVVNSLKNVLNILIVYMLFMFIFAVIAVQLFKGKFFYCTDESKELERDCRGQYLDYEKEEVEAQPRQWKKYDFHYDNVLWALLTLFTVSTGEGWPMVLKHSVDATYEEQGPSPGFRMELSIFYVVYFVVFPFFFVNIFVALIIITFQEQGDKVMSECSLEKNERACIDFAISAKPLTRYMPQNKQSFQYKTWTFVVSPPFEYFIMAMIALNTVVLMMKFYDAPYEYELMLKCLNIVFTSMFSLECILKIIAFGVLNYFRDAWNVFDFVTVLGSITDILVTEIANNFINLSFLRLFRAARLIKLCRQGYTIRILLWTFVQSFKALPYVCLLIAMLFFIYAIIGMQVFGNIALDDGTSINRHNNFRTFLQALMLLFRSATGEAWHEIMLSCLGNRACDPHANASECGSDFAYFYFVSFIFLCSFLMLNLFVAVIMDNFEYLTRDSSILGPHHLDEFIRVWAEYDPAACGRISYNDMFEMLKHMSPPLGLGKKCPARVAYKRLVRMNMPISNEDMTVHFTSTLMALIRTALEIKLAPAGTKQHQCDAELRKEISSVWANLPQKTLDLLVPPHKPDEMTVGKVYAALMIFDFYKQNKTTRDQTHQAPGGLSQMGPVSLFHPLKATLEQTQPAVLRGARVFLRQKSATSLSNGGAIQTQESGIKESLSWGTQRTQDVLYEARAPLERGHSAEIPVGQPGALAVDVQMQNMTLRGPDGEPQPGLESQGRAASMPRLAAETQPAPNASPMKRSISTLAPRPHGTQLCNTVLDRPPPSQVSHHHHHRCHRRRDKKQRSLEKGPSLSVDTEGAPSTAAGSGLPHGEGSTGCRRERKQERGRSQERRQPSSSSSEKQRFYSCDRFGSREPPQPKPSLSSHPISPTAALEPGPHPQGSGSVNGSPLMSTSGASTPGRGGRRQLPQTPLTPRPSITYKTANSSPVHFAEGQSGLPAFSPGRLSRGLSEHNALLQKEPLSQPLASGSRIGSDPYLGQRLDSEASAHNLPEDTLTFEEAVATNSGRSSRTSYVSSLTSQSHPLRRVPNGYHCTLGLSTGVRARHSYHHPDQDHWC
T1 sequence (P54287 whole entry partner): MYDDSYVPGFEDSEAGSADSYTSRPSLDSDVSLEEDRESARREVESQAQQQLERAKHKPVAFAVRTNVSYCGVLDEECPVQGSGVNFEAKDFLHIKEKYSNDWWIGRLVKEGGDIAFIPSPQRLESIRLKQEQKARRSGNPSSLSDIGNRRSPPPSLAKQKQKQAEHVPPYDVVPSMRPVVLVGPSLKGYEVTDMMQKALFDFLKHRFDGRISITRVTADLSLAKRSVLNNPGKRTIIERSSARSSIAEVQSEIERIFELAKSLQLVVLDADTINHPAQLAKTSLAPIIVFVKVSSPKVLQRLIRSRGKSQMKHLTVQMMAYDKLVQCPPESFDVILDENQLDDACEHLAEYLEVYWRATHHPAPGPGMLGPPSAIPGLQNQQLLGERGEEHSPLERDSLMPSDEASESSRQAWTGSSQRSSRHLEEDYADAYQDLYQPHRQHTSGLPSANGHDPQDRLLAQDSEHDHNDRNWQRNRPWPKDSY
T1 sequence (P54290 25-944 partner limits assumed): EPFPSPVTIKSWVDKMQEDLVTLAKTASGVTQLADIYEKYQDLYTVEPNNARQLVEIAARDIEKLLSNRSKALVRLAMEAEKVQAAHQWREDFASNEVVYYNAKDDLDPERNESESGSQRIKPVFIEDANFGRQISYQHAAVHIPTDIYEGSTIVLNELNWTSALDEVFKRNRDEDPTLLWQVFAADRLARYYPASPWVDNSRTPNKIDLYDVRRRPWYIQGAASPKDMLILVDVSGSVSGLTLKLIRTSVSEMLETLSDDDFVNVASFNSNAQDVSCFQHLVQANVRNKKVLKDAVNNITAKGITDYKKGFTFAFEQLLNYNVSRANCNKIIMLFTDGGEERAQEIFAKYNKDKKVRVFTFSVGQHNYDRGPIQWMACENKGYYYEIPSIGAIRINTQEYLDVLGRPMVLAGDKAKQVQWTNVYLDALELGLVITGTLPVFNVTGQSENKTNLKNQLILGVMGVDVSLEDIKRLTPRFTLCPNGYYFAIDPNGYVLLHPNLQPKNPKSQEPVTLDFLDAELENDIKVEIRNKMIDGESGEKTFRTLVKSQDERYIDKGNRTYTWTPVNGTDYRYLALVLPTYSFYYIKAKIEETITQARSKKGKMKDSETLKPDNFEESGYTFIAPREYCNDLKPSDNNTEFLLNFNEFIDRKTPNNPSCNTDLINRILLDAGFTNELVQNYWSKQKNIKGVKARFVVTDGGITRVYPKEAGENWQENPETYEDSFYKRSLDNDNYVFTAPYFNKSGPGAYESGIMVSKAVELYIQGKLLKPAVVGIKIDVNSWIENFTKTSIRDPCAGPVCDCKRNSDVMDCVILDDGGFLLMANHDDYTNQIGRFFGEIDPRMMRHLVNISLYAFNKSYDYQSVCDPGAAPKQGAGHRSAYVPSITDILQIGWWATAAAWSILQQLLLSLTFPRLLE
T1 sequence (P54290 945-1091 partner limits assumed): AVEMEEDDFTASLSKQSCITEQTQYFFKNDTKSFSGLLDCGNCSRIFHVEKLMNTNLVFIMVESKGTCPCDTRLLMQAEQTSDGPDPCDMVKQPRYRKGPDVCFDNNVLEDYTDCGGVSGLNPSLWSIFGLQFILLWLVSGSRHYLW

The term IC50 denotes the point on the concentration scale where inhibition reaches its midpoint. Turning to `Cc1cn2nc(-c3nc4ccc(N5CCN(C)CC5)cc4c(=O)[nH]3)cc2c(C)n1` [TEC-1, 2-(4,6-dimethylpyrazolo[1,5-a]pyrazin-2-yl)-6-(4-methylpiperazin-1-yl)quinazolin-4(3H)-one], the IC50 in assay [1] amounted to 8.8 µM. The “righting reflex latency compared to vehicle-treated mice” value in the assay on SMNΔ7 mice (2 mg/kg, P16) is given as “significantly shortened latency time”. The results for the “SMA mice that survived” value in the assay with SMNΔ7 mice (administered intraperitoneally throughout) and in the assay on SMNΔ7 mice (oral administration after weaning) were 66% and 40%, respectively. Also, the “body mass compared to vehicle-treated SMNΔ7 mice” value in the assay with SMNΔ7 mice (2, 6, 20 mg/kg once a day) was “increased body mass”. Also, in the assay on SMNΔ7 mice (2, 6, 20 mg/kg once a day, Kaplan–Meier to P65), the “survival compared with vehicle-treated SMNΔ7 mice” value is reported as “enhanced the survival”. Also, the “survivors at P65 / total mice” value in the assay on SMNΔ7 mice (20 mg/kg once daily (i.p. P2-P23, then p.o.)) was 4 of 10; with SMNΔ7 mice (20 mg/kg once daily (i.p.-i.p.), TEC-1 succinate) it was 2 of 3. Further, the survival until weaning result in the assay with SMNΔ7 mice (all SMA model mice, 20 mg/kg intraperitoneally) is given as “survived until weaning”. The “concentration that increased SMA protein” value with SMN protein is recorded as 100 nM.
